Source: patent US7629156B2, “Ethanol production in fermentation of mixed sugars containing xylose” (E.I. du Pont de Nemours and Company, priority 2006, dated 2009)

Tests used:
Type in all cases: cell-based, Zymomonas mobilis
[1] = test system: ZW658 strain; experiment: Tube fermentation of ZW658 on glucose and xylose with various sugar alcohols (Example 13); settings: sugar alcohol in the medium vs control
Description: (§1) Approximately 1 ml of well mixed sample was obtained from flask or fermentor. First the sample absorbance was measured directly with a spectrophotometer (Amersham Biosciences Ultrospec 3300pro, GE Healthcare, Piscataway, N.J., USA). If the reading was lower than 0.6 unit, no dilution was needed. If the reading was higher than 0.6 unit, the sample was diluted with culture medium until the actual reading was in the range of 0.1 to 0.6 unit. The original OD was calculated from the dilution ratio and the actual reading.
(§2) The analysis of sugars, acetate, ethanol, and other by-products was done with an Agilent 1100 series HPLC and Agilent ChemStation software for LC 3D. The column was BioRad Aminex HPX-87H(HPLC Organic Analysis Column 125-0140) with BioRad Micro-Guard Cartridge Cation-H (125-0129). The operating conditions were:
In eight sterilized 50 ml screw-cap centrifuge tubes (Cat. No. 21008-178, VWR International, USA), 200 μl of ZW658 strain glycerol stock at OD600 of approximately 10 was inoculated into each flask with 25 ml of aqueous solution containing 92 g/L glucose, 82 g/L xylose, 10 g/L yeast extract (YE), 2 g/L KH2PO4, 1 g/L MgSO4.7H2O, and either 10 mM of sorbitol, arabitol, adonitol (also called ribitol), or galactitol; or 50 mM of arabitol, adonitol, or galactitol. The control had no sugar alcohol added. Initial pH was adjusted to 5.5 with 4 N H3PO4 solution. Fermentation was conducted at 33° C. and pH was not controlled. Samples were taken periodically between 0 and 40 hr. Samples were filtered through 0.22 micron filters, and the filtrates were analyzed by HPLC as described in General Methods for glucose, xylose, xylitol, and ethanol. Samples were diluted with medium (as described in General Methods) and the OD600 was measured to monitor cell growth. Results of growth and glucose utilization are given in FIGS. 20A and 20B, respectively. Results of xylose utilization and ethanol production are given in FIGS. 21A and 21B, respectively. Cultures with sorbitol or galactitol grew much faster and better than the control. Cultures with adonitol also grew better. After 40 hours, the OD600 were 7 to 8, for cultures supplemented with sorbitol or galactitol; the OD600 were about 5, for cultures supplemented with adonitol; while the OD600 were less than 1 for other cultures. […] The presence of sorbitol, galactitol, or adonitol allowed more xylose utilization, without production of xylitol.

[2] = test system: ZW658 strain; experiment: Flask fermentation of ZW658 on glucose and xylose with various polyols; settings: 10 mM polyol
Description: as §1, §2
(§3) Glycerol stock of seed frozen at −80° C. was thawed, then inoculated into sterile culture tubes with mixture of 60 g/L glucose, 20 g/L xylose, 10 g/L yeast extract (YE), 10 g/L KH2PO4, 2 g/L (NH4)2SO4, and 1 g/L MgSO4. Initial pH was adjusted to 5.5 with 4 N KOH. This revival culture was grown statically overnight at 37° C. It was transferred into shake flasks with 75 g/L glucose, 25 g/L xylose, 10 g/L yeast extract (YE), 10 g/L KH2PO4, 2 g/L (NH4)2SO4, and 1 g/L MgSO4. Initial pH was adjusted to 5.5 with 4 N KOH. Growth was monitored by measuring OD600. When the OD reached approximately 5, a certain volume of the seed was withdrawn into a sterile syringe for inoculation.
In five sterilized 125 ml Erlenmeyer culture flasks (Cat. No. 30180-036, VWR International, USA), 10 ml of ZW658 strain seed culture at OD600 of approximately 5 was inoculated into each flask with 100 ml of aqueous solution containing 100 g/L glucose, 80 g/L xylose, 10 g/L yeast extract (YE), 2 g/L KH2PO4, 1 g/L MgSO4.7H2O, and 4 g/L KHCO3, and 10 mM of one of the following polyols: erythritol, sorbitol, mannitol, maltitol, or lactitol. After inoculation, the total sugar concentration was about 160 g/L due to dilution by the seed culture. Initial pH was adjusted to 5.5 with 4 N H3PO4 solution. Mixing speed was set at 150 rpm. Fermentation was conducted at 33° C. and pH was not controlled. Samples were taken periodically. Samples were filtered through 0.22 micron filters, and the filtrates were analyzed by HPLC as described in General Methods for compounds including glucose, xylose, ethanol, xylitol, and acetic acid. Samples were diluted with medium (as described in General Methods) and the OD600 was measured to monitor cell growth. […] Cultures with sorbitol or mannitol grew faster and better. After 32 hours, the OD600 were 13.94 and 13.92, respectively, for cultures supplemented with sorbitol or mannitol; meanwhile, the OD600 were 9.48, 9.02, and 9.24, respectively, for cultures supplemented with erythritol, maltitol, or lactitol. […] The presence of sorbitol or mannitol allowed more xylose utilization, without production of xylitol.

[3] = test system: ZW658 strain; experiment: Flask fermentation of ZW658 on high concentration glucose or xylose alone with sorbitol; settings: for OD600: after 48 hours, 33° C.; for ethanol production rate: 20 mM sorbitol vs no sorbitol
Description: as §1, §2, §3
In four sterilized 125 ml Erlenmeyer culture flasks (Cat. No. 30180-036, VWR International, USA), 10 ml of ZW658 strain seed culture at OD600 of approximately 5 was inoculated into each flask with 100 ml of aqueous solution containing 10 g/L yeast extract (YE), 2 g/L KH2PO4, 4 g/L KHCO3. Before inoculation, the first flask also contained 200 g/L glucose and 20 mM sorbitol, comparing to the second flask with 200 g/L glucose only. The third flask contained 200 g/L xylose and 20 mM sorbitol, comparing to the fourth flask with 200 g/L xylose only. After inoculation, sugar concentrations were diluted to about 180 g/L. Initial pH was adjusted to 5.5 with 4 NH3PO4 solution. Mixing speed was set at 150 rpm. Fermentation was conducted at 33° C. and pH was not controlled. Samples were taken periodically. Samples were filtered through 0.22 micron filters, and the filtrates were analyzed by HPLC as described in General Methods for compounds including glucose, xylose, ethanol, and xylitol. Samples were diluted with medium (as described in General Methods) and the OD600 was measured to monitor cell growth. […] After 48 hours, the OD600 were 9.94, 6.46, 5.37 and 5.45, respectively, for the first, second, third, and fourth flask.

`OC[C@@H](O)[C@@H](O)[C@H](O)[C@@H](O)CO` [sorbitol] was tested, and the ethanol production [1] was “ethanol production was also better”, the xylose utilization [1] was “More xylose was utilized” and the ethanol production ([2]; mixed sugars) was “ethanol production was also better”. For the same molecule, the xylose utilization ([2]; mixed sugars) was “More xylose was utilized”, the OD600 ([2]; after 32 hours, total sugar about 160 g/L, 33° C.) was 13.94 and the OD600 ([3]; 200 g/L glucose (about 180 g/L after inoculation), 20 mM sorbitol) was 9.94. The OD600 ([3]; 200 g/L xylose (about 180 g/L after inoculation), 20 mM sorbitol) was 5.37, the ethanol production rate ([3]; glucose culture) was “more rapid” and the xylitol production ([3]; glucose only or xylose only cultures, 20 mM sorbitol) was “No xylitol was produced”. For the same molecule, the effect on growth ([3]; high concentration glucose culture, 20 mM sorbitol) was “significantly stimulated growth”, the effect on growth ([3]; high concentration xylose culture, 20 mM sorbitol) was “almost no effect on growth” and the ethanol production rate ([3]; xylose only culture) was “at the same rate with and without sorbitol”.
